Assays:
[1] = Stability in mouse serum at 37° C. (radiochemical purity by TLC); assay type: in vitro ADME; conditions: 4 h
Protocol: (§1) The radiochemical purity of ^99mTc-CN7DM was determined by TLC after being placed in normal saline at room temperature and in mouse serum at 37° C. for 4 h.

mice bearing S180 tumors = test: Biodistribution determination in tumor-bearing mice; assay type: in vivo; conditions: for Blood uptake / Bone uptake / Heart uptake / Kidney uptake / Liver uptake / Lung uptake / Muscle uptake / Small intestine uptake / Spleen uptake / Thyroid gland uptake / Tumor uptake: n = 5, mean ± SD; for Tumor uptake: S180 tumor
Protocol: 0.1 mL of the ^99mTc-CN7DM labeling solution (370 kBq) was injected into mice bearing S180 tumors through the tail vein. After recording the injection time, the mice were subjected to sacrificing by cervical […] at different time points of 30 min and 120 min (5 mice were executed at each time), dissecting, taking out tissues or organs of interest such as heart, liver, lungs, kidneys, spleen, bone, muscles, small intestine, blood and tumors. A radioactivity count of each of the tissues or organs was measured by the γ-counter, and uptake value of each of the tissues or organs in % ID/g was obtained by converting a mass of each of the tissues or organs.

[2] = Stability in normal saline at room temperature (radiochemical purity by TLC); assay type: physicochemical; conditions: 4 h
Protocol: as §1

[3] = Determination of lipid-water partition coefficient (n-octanol/PBS); assay type: physicochemical; conditions: n-octanol / PBS 0.025 M, pH 7.4
Protocol: To a 5 mL centrifuge tube were added 100 μL of a ^99mTc-CN7DM solution with a radioactivity of 10 μCi, 1 mL of n-octanol and 900 μL of phosphate buffered saline (PBS) (0.025 M and pH 7.4). The mixture was vortexed at a rotation speed of 2,500 rpm for 3 min, subjected to standing for stratification, and centrifuged at 9,000 rpm in a centrifuge for 5 min. Three samples (each for 100 μL) were taken from each of the two phases, and determined by a γ-counter for the radioactivity counts.

[4] = 30 min after tail vein injection
[5] = 120 min after tail vein injection

For `[99Tc+].[C-]#[N+]CCCCCCCC(=O)NC1C(O)OC(CO)C(O)C1O.[C-]#[N+]CCCCCCCC(=O)NC1C(O)OC(CO)C(O)C1O.[C-]#[N+]CCCCCCCC(=O)NC1C(O)OC(CO)C(O)C1O.[C-]#[N+]CCCCCCCC(=O)NC1C(O)OC(CO)C(O)C1O.[C-]#[N+]CCCCCCCC(=O)NC1C(O)OC(CO)C(O)C1O.[C-]#[N+]CCCCCCCC(=O)NC1C(O)OC(CO)C(O)C1O` (centres unmarked) [^99mTc-CN7DM], the “radiochemical purity after standing (stability)” value [1] was “greater than 90%”, the Tumor/Blood ratio (mice bearing S180 tumors; [4]) was 3.79 and the Tumor/Muscle ratio (mice bearing S180 tumors; [4]) was 3.25. The Blood uptake (mice bearing S180 tumors; [4]) was 1.61 ± 0.17 % ID/g, the Bone uptake (mice bearing S180 tumors; [4]) was 1.41 ± 0.17 % ID/g and the Heart uptake (mice bearing S180 tumors; [4]) was 2.08 ± 0.26 % ID/g. It also gave a Kidney uptake (mice bearing S180 tumors; [4]) of 6.22 ± 0.91 % ID/g, a Liver uptake (mice bearing S180 tumors; [4]) of 2.91 ± 0.23 % ID/g and a Lung uptake (mice bearing S180 tumors; [4]) of 1.86 ± 0.19 % ID/g. For the same compound, the Muscle uptake (mice bearing S180 tumors; [4]) was 1.88 ± 0.16 % ID/g, the Small intestine uptake (mice bearing S180 tumors; [4]) was 1.05 ± 0.20 % ID/g and the Spleen uptake (mice bearing S180 tumors; [4]) was 1.23 ± 0.11 % ID/g. The Thyroid gland uptake (mice bearing S180 tumors; [4]) was 0.04 ± 0.01 % ID, the Tumor/Blood ratio (mice bearing S180 tumors; [5]) was 63.48 and the Tumor/Muscle ratio (mice bearing S180 tumors; [5]) was 6.18. The Blood uptake (mice bearing S180 tumors; [5]) was 0.09 ± 0.02 % ID/g, the Bone uptake (mice bearing S180 tumors; [5]) was 0.76 ± 0.17 % ID/g and the Heart uptake (mice bearing S180 tumors; [5]) was 1.40 ± 0.14 % ID/g. For the same compound, the Kidney uptake (mice bearing S180 tumors; [5]) was 3.12 ± 0.82 % ID/g, the Liver uptake (mice bearing S180 tumors; [5]) was 2.13 ± 0.46 % ID/g and the Lung uptake (mice bearing S180 tumors; [5]) was 0.76 ± 0.20 % ID/g. The Muscle uptake (mice bearing S180 tumors; [5]) was 0.96 ± 0.12 % ID/g, the Small intestine uptake (mice bearing S180 tumors; [5]) was 0.42 ± 0.13 % ID/g and the Spleen uptake (mice bearing S180 tumors; [5]) was 0.80 ± 0.15 % ID/g. It also gave a Thyroid gland uptake (mice bearing S180 tumors; [5]) of 0.02 ± 0.00 % ID, a Tumor uptake (mice bearing S180 tumors; [4]) of 6.11 ± 0.76 % ID/g and a Tumor uptake (mice bearing S180 tumors; [5]) of 5.92 ± 0.30 % ID/g. The “radiochemical purity after standing (stability)” value [2] was “greater than 90%” and the “log P (lipid-water partition coefficient)” value [3] was −3.15±0.06.
